In ChEMBL document CHEMBL1201862, “PubChem BioAssay data set” (2004):
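Interpolation was linear, between the two tested concentrations surrounding the appropriate level; five concentrations were tested over 48 hours in 96-well plates. GI50 is the concentration that inhibits growth by half.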 The source made the active and inactive calls. Rule as the data show it: active = GI50 up to about 1.1 µM and inactive = higher.

Columns and labels:
Experiment in all cases: inhibition of tumour cell growth, NCI panel, 48 h
HL-60 = system: HL-60
KM-20L2 = system: KM-20L2
MCF7 = system: MCF7
NCI/ADR-RES = system: NCI/ADR-RES
Malme-3M = system: Malme-3M
COLO 205 = system: COLO 205
HOP-62 = system: HOP-62
HCT-15 = system: HCT-15
HCT-116 = system: HCT-116
MOLT-4 = system: MOLT-4
SNB-19 = system: SNB-19
RXF 393 = system: RXF 393
SF-539 = system: SF-539
HT-29 = system: HT-29
SN12C = system: SN12C
OVCAR-3 = system: OVCAR-3
SK-MEL-28 = system: SK-MEL-28
NCI-H226 = system: NCI-H226
M14 = system: M14
ACHN = system: ACHN

Row | SMILES | GI50 (HL-60) | GI50 (KM-20L2) | GI50 (MCF7) | GI50 (NCI/ADR-RES) | GI50 (Malme-3M) | GI50 (COLO 205) | GI50 (HOP-62) | GI50 (HCT-15) [µM] | GI50 (HCT-116) | GI50 (MOLT-4) | GI50 (SNB-19) | GI50 (RXF 393) | GI50 (SF-539) | GI50 (HT-29) | GI50 (SN12C) | GI50 (OVCAR-3) | GI50 (SK-MEL-28) | GI50 (NCI-H226) | GI50 (M14) | GI50 (ACHN)
1 | O=NN1C(c2ccccc2)CNC(=O)CC1c1ccccc1 (centres undefined) | 21.9 µM (inactive) | 25.3 µM (inactive) | 24.9 µM (inactive) | 28.7 µM (inactive) | 50.9 µM (inactive) | 25.8 µM (inactive) | 37.6 µM (inactive) | 36 | 38.5 µM (inactive) | 52.7 µM (inactive) | 48.5 µM (inactive) | 22.2 µM (inactive) | 35.4 µM (inactive) | 28.6 µM (inactive) | 53 µM (inactive) | 22.8 µM (inactive) | 57.3 µM (inactive) | 68.5 µM (inactive) | – | –
2 | O=c1[nH]c(=O)n(C2CC(O)C(CO)O2)cc1C#Cc1cc(C(F)(F)F)cc(C(F)(F)F)c1 (centres undefined) | > 60.4 µM (inactive) | > 45.4 µM (inactive) | – | – | 34.8 µM (inactive) | > 21.3 µM (inactive) | > 68.1 µM (inactive) | > 50.7 | > 22.8 µM (inactive) | > 26.9 µM (inactive) | 20.1 µM (inactive) | 8.87 µM (inactive) | 26.5 µM (inactive) | > 31.8 µM (inactive) | > 27.9 µM (inactive) | > 52.1 µM (inactive) | > 31.7 µM (inactive) | > 100 µM (inactive) | > 24.8 µM (inactive) | > 29.4 µM (inactive)
3 | O=c1cc(-c2nc3ccccc3[nH]2)[nH]c2nc(-c3nc4ccccc4[nH]3)cc(-c3ccc(Cl)cc3)c12 | 24.9 µM (inactive) | – | 12.9 µM (inactive) | 28.4 µM (inactive) | 23 µM (inactive) | 12.1 µM (inactive) | 24.4 µM (inactive) | 10 | 17 µM (inactive) | 19.4 µM (inactive) | 46.3 µM (inactive) | 14.5 µM (inactive) | 15.9 µM (inactive) | 20 µM (inactive) | 16.5 µM (inactive) | 19.3 µM (inactive) | – | 16.9 µM (inactive) | 23.8 µM (inactive) | 16.6 µM (inactive)
4 | NC12CCC(CC1=O)C2 (centres undefined) | > 100 µM (inactive) | – | > 100 µM (inactive) | > 100 µM (inactive) | > 100 µM (inactive) | > 100 µM (inactive) | > 100 µM (inactive) | > 100 | > 100 µM (inactive) | > 100 µM (inactive) | – | – | > 100 µM (inactive) | > 100 µM (inactive) | > 100 µM (inactive) | > 100 µM (inactive) | > 100 µM (inactive) | > 100 µM (inactive) | > 100 µM (inactive) | > 100 µM (inactive)
5 | CCOC(=O)C(C(C)=O)C1CC=CC1 (centres undefined) | > 100 µM (inactive) | > 100 µM (inactive) | – | – | > 100 µM (inactive) | > 100 µM (inactive) | > 100 µM (inactive) | > 100 | > 100 µM (inactive) | > 100 µM (inactive) | > 100 µM (inactive) | > 100 µM (inactive) | – | > 100 µM (inactive) | > 100 µM (inactive) | > 100 µM (inactive) | > 100 µM (inactive) | > 100 µM (inactive) | > 100 µM (inactive) | > 100 µM (inactive)
6 | COc1ccc(C[C@H](N)C(=O)N2C[C@H](CO)C[C@H](n3cnc4c(N(C)C)ncnc43)C2)cc1 | 73.5 µM (inactive) | > 100 µM (inactive) | – | – | > 100 µM (inactive) | > 100 µM (inactive) | > 100 µM (inactive) | > 100 | > 100 µM (inactive) | > 100 µM (inactive) | > 100 µM (inactive) | > 100 µM (inactive) | > 100 µM (inactive) | > 100 µM (inactive) | > 100 µM (inactive) | > 100 µM (inactive) | > 100 µM (inactive) | > 100 µM (inactive) | > 100 µM (inactive) | > 100 µM (inactive)
7 | CC(=O)N1N=C(c2ccc3ccccc3c2O)CC1c1cccs1 (centres undefined) | – | – | 10.9 µM (inactive) | 13.6 µM (inactive) | 10.4 µM (inactive) | 20.2 µM (inactive) | 16.3 µM (inactive) | 14 | 9.89 µM (inactive) | 4.26 µM (inactive) | – | 15.7 µM (inactive) | 22.2 µM (inactive) | 21.9 µM (inactive) | 12.1 µM (inactive) | 7.96 µM (inactive) | 37.2 µM (inactive) | 40.1 µM (inactive) | 14.4 µM (inactive) | 15.6 µM (inactive)
8 | O=C1CCCCN1 | 706 µM (inactive) | > 1120 µM (inactive) | > 1120 µM (inactive) | 248 µM (inactive) | > 1120 µM (inactive) | > 1120 µM (inactive) | > 1120 µM (inactive) | > 1120 | > 1120 µM (inactive) | 706 µM (inactive) | > 1120 µM (inactive) | 272 µM (inactive) | > 1120 µM (inactive) | > 1120 µM (inactive) | > 267 µM (inactive) | > 1120 µM (inactive) | > 1120 µM (inactive) | 635 µM (inactive) | – | –
9 | CC(C)(C)[Si](C)(C)OC[C@H](/C=C\CCCC(=O)O)NC1(c2ccccc2)c2ccccc2-c2ccccc21 | 8.53 µM (inactive) | – | 10.4 µM (inactive) | 9.75 µM (inactive) | – | 13.6 µM (inactive) | 15.2 µM (inactive) | 11.2 | 7.29 µM (inactive) | 5.52 µM (inactive) | 32.9 µM (inactive) | 10.2 µM (inactive) | 16.3 µM (inactive) | 13.2 µM (inactive) | 11.6 µM (inactive) | 12.5 µM (inactive) | 16.7 µM (inactive) | 11.6 µM (inactive) | 16.8 µM (inactive) | 11.8 µM (inactive)
10 | O=C1CSC(C(/N=N/c2ccc(Cl)cc2)c2nc3ccccc3[nH]2)=N1 (centres undefined) | 51.6 µM (inactive) | > 100 µM (inactive) | – | – | > 100 µM (inactive) | > 100 µM (inactive) | 35.2 µM (inactive) | > 100 | > 100 µM (inactive) | 6.79 µM (inactive) | 50.6 µM (inactive) | – | 23.4 µM (inactive) | > 100 µM (inactive) | > 100 µM (inactive) | 36.9 µM (inactive) | 35.5 µM (inactive) | 0.0105 µM (active) | > 100 µM (inactive) | 28.7 µM (inactive)
11 | COc1ccc(-c2c3c(nc4nc(SC)nc(SC)c24)CCCC3)cc1OC | 25.1 µM (inactive) | – | 41.5 µM (inactive) | – | 42.5 µM (inactive) | > 100 µM (inactive) | 46.8 µM (inactive) | 16 | 44.4 µM (inactive) | 33.4 µM (inactive) | > 100 µM (inactive) | 25.9 µM (inactive) | > 100 µM (inactive) | 36.6 µM (inactive) | > 100 µM (inactive) | 65.5 µM (inactive) | 59.7 µM (inactive) | 56.6 µM (inactive) | 81.7 µM (inactive) | 72.4 µM (inactive)
